Experimental data as given in patent US6323365A (Yissum Research Development Company of the Hebrew …, priority 2000, dated 2001).

Columns and labels:
offspring = conditions: cited from earlier work
seizure spread = test: maximal electroshock (MES) test; conditions: for ED50: Rattus norvegicus, po, read-out: MES anticonvulsant activity (ED50)
seizure threshold = test: subcutaneous metrazol (sc Met) test; conditions: Rattus norvegicus, po, read-out: sc Met anticonvulsant activity (ED50)
in vivo = conditions: rat, po

Structure (SMILES) | teratogenicity (offspring) | ED50 (seizure spread) [mg/kg] | ED50 (seizure threshold) [mg/kg] | potency in MES test relative to (R)-HP-VPD (seizure spread; MES test, vs (R)-HP-VPD (II)) | SI (stereoselective index) = (R)-HP-VPD/(S)-HP-VPD (seizure spread; MES, oral, rats) | PI-MES (protective index): TD50/ED50 (seizure spread; oral, rats, MES) | TD50 (in vivo) [mg/kg] | potency in MES test relative to VPA (seizure spread; MES test, vs VPA)
CCCC(CCC)C(=O)O [VPA, Valproic acid, reference compound] | associated with teragenecity | 490 | 180 | – | – | – | – | –
CCCC(CCC)C(=O)NC[C@H](C)O [(S)-HP-VPD, N-(2-OH-propyl)valpromide] | – | 48 | – | more than two times more potent than (R)-HP-VPD | 2.4 | > 13.5 | > 650 | –
CCCC(CCC)C(=O)NC[C@@H](C)O [(R)-HP-VPD, N-(2-OH-propyl)valpromide] | – | 117 | – | – | – | > 4.3 | > 500 | –
CCCC(CCC)C(=O)NCC(C)O (racemic) [HP-VPD (rac)] | – | 92 | > 250 | – | – | > 2.7 | > 250 | five times more potent than VPA
